Read-outs that look alike come from different tables or passages of the source.
Key:
Assay type in all cases: cell-based
[1] = test system: Dengue serotype 2 New Guinea C (NGC) strain; assay: DENV-2 Huh-7 EC50 (qPCR in Huh7 cells)
Method: Huh7 (Human hepatocarcinoma 7) cells were maintained in 10% FCS-containing DMEM complete media. On the day of the assay, cells were trypsinized (0.1% Trypsin-EDTA), washed and infected for 2 hours in serum-free DMEM with Dengue serotype 2 New Guinea C (NGC) strain at MOI=0.1 with gentle agitation at 37° C. After 2 hours, cells were washed with serum-free media and suspended in 10% FCS-containing DMEM (Gibco, supplemented with sodium pyruvate, NEAA, Penicillin-Streptomycin). 10^5 cells were plated in triplicate in 96-well plates with compounds dispensed at graded doses (Hewlett-Packard D300 Digital Dispenser). All wells were normalized to 0.25% DMSO. At 48 hours, cells were washed with 1×PBS and all supernatants removed. Total RNA was extracted using RNEasy 96 plates (Qiagen) and used to generate first-strand cDNA using XLT cDNA 5× Supermix (QuantaBio). cDNA was used as a template in a Taqman qPCR duplex reaction specific to DENV2 viral and GAPDH gene expression. EC50 values were determined using Prism Graphpad software, with normalization to a positive control and no compound negative control wells.

HRV16 = HRV16 HeLa EC50 (cytopathic effect in H1-HeLa cells)
In short: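 Read-out is luminescent cell viability (CellTiter-Glo) after 96 h of infection at 33 °C, scaled between uninfected and infected-untreated wells. Before infection with titrated virus, compounds went onto H1-HeLa cells as triplicate 3-fold dilution series.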

[2] = test system: Dengue 2, New Guinea strain (NGC); assay: DENV moDC EC50 (qPCR in human monocyte-derived dendritic cells); conditions: Table 3, human moDCs, 48 hours
Method: Human monocyte-derived dendritic cells (moDCs) were derived from CD14+ monocytes (AllCells) cultured in Human Mo-DC Differentiation medium containing GM-CSF and IL-4 (Miltenyi Biotec). On day 7, moDCs were harvested by mechanical disruption, washed and suspended in serum-free RPMI. moDCs were infected with Vero-derived Dengue 2, New Guinea strain (NGC) at a MOI=0.1 for two hours in serum-free RPMI with gentle agitation at 37° C. Cells were washed and resuspended in 10% serum-containing RPMI (Gibco, supplemented with sodium pyruvate, NEAA, Penicillin-Streptomycin). […] were plated in triplicate in 96-well plates with compounds dispensed at graded doses (Hewlett-Packard D300 Digital Dispenser). All wells were normalized to 0.25% DMSO. At 48 hours, cells were washed with 1×PBS and all supernatants removed. Total RNA was extracted using RNEasy 96 plates (Qiagen) and used to generate first-strand cDNA using XLT cDNA 5× Supermix (QuantaBio). cDNA was used as a template in a Taqman qPCR duplex reaction specific to DENV2 viral and GAPDH gene expression. EC50 values were determined using Prism Graphpad software, with normalization to a positive control and no compound negative control wells.

HCV Rep 2A = HCV Rep 2A EC50 (replicon luciferase)
Method: (§1) Compounds were serially diluted in ten steps of 1:3 dilutions in 384-well plates. All serial dilutions were performed in four replicates per compound within the same 384-well plate. […] To each well of a black polystyrene 384-well plate (Greiner Bio-one, Monroe, NC), 90 μL of cell culture medium (without Geneticin) containing 2000 suspended HCV replicon cells was added with a Biotek μFlow workstation. For compound transfer into cell culture plates, 0.4 μL of compound solution from the compound serial dilution plate was transferred to the cell culture plate on a Biomek FX workstation. The DMSO concentration in the final assay wells was 0.44%. The plates were incubated for 3 days at 37° C. with 5% CO2 and 85% humidity. The HCV replicon assay was a multiplex assay, able to assess both cytotoxicity and antireplicon activity from the same well. The CC50 assay was performed first. The media in the 384-well cell culture plate was aspirated, and the wells were washed four times with 100 μL of PBS each, using a Biotek ELX405 plate washer. A volume of 50 μL of a solution containing 400 nM calcein AM (Anaspec, Fremont, CA) in 1×PBS was added to each well of the plate with a Biotek μFlow workstation. The plate was incubated for 30 min at room temperature before the fluorescence signal (excitation 490 nm, emission 520 nm) was measured with a Perkin-Elmer Envision plate reader. The EC50 assay was performed in the same wells as the CC50 assay. The calcein-PBS solution in the 384-well cell culture plate was aspirated with a Biotek ELX405 plate washer. A volume of 20 μL of Dual-Glo luciferase buffer (Promega, Madison, WI) was added to each well of the plate with a Biotek μFlow Workstation. The plate was incubated for 10 min at room temperature. A volume of 20 μL of a solution containing a 1:100 mixture of Dual-Glo Stop & Glo substrate (Promega, Madison, WI) and Dual-Glo Stop & Glo buffer (Promega, Madison, WI) was added to each well of the plate with a Biotek μFlow Workstation. The plate was then incubated at room temperature for 10 min before the luminescence signal was measured with a Perkin-Elmer Envision Plate Reader.

HCV Rep 1B = HCV Rep 1B EC50 (replicon luciferase)
Method: as §1

[3] = Dengue virus, DENV2, Huh-7, Table 3, Huh7 cells, 48 hours, read-out: DENV-2 Huh7 EC50
[4] = 96 h, Table 3, H1-HeLa cells, 96 h, read-out: HRV16 HeLa EC50
[5] = Table 3, Huh7 cells, 48 hours, read-out: DENV-2 Huh7 EC50
[6] = Table 4, replicon cells, 3 days, read-out: HCV Rep 2A EC50
[7] = Table 4, replicon cells, 3 days, read-out: HCV Rep 1B EC50
[8] = Table 3, H1-HeLa cells, 96 h, read-out: HRV16 HeLa EC50
[9] = Dengue virus, Huh-7, read-out: DENV Huh7 EC50
[10] = Hepatitis C virus, 72 h, Table 4, replicon cells, 3 days, read-out: HCV Rep 2A EC50
[11] = Hepatitis C virus, 72 h, Table 4, replicon cells, 3 days, read-out: HCV Rep 1B EC50
[12] = HeLa, read-out: HRV16 HeLa EC50, Table 5 comparative activity, 2',3'-OH vs -OC(O)iPr

SMILES	EC50 [1, 3]	EC50 (HRV16; [4])	EC50 ([2]; Dengue virus, Dendritic cell)	EC50 (HRV16; [8])	EC50 (HCV Rep 2A; [10])	EC50 (HCV Rep 1B; [11])	further results
CCC(=O)O[C@H]1[C@H](c2ccc3c(N)ncnn23)O[C@](C#N)(CO[P@@](=O)(N[C@@H](C)C(=O)OC)Oc2ccccc2)[C@H]1OC(=O)CC (single isomer, unassigned) [Example 143]	3130 nM	221 nM	164 nM				
CC(C)C(=O)O[C@H]1[C@H](c2ccc3c(N)ncnn23)O[C@](C#N)(COP(=O)(N[C@@H](C)C(=O)OC2COC2)Oc2ccccc2)[C@H]1OC(=O)C(C)C (single isomer, unassigned) [Example 186]				44 nM			EC50 [1, 5]: 1730 nM; EC50 (HCV Rep 2A; [6]): 836 nM; EC50 (HCV Rep 1B; [7]): 306 nM
COC(=O)[C@H](C)N[P@](=O)(OC[C@@]1(C#N)O[C@@H](c2ccc3c(N)ncnn23)[C@H](OC(=O)C(C)C)[C@@H]1OC(=O)C(C)C)Oc1ccccc1 (single isomer, unassigned) [Example 140]	1220 nM	83 nM	90 nM		542 nM	369 nM	EC50 [1, 9]: 1210 nM; EC50 (HCV Rep 2A; Hepatitis C virus, read-out: HCV Rep2A EC50): 542 nM; EC50 (HCV Rep 1B; Hepatitis C virus, read-out: HCV Rep1B EC50): 368 nM; EC50 (HRV16; [12]): 83 nM
CC(C)C(=O)O[C@H]1[C@H](c2ccc3c(N)ncnn23)O[C@](C#N)(COP(=O)(N[C@@H](C)C(=O)OCC2CCOCC2)Oc2ccccc2)[C@H]1OC(=O)C(C)C (single isomer, unassigned) [Example 183]				88 nM			EC50 [1, 5]: 1110 nM; EC50 [2]: 142 nM
CCC(CC)COC(=O)[C@H](C)N[P@](=O)(OC[C@@]1(C#N)O[C@@H](c2ccc3c(N)ncnn23)C(OC(=O)C(C)C)[C@@H]1OC(=O)C(C)C)Oc1ccccc1 (stereo in doubt) [Example 86, (2R,3S,4R,5S)-5-(4-aminopyrrolo[2,1-f][1,2,4]triazin-7-yl)-2-cyano-2-((((S)-(((S)-1-(2-ethylbutoxy)-1-oxopropan-2-yl)amino)(phenoxy)phosphoryl)oxy)methyl) tetrahydrofuran-3,4-diyl bis(2-methylpropanoate)]	1410 nM	192 nM	239 nM		1480 nM	929 nM	
CCC(=O)O[C@H]1[C@H](c2ccc3c(N)ncnn23)O[C@](C#N)(CO[P@@](=O)(N[C@@H](C)C(=O)OCC2CC2)Oc2ccccc2)[C@H]1OC(=O)CC [Example 99]				116 nM			EC50 (HCV Rep 2A; [6]): 599 nM; EC50 (HCV Rep 1B; [7]): 313 nM
CCC(=O)O[C@H]1[C@H](c2ccc3c(N)ncnn23)O[C@](C#N)(CO[P@@](=O)(N[C@@H](C)C(=O)OC2CCCCC2)Oc2ccccc2)[C@H]1OC(=O)CC [Example 82, (2R,3S,4S,5S)-5-(4-aminopyrrolo[2,1-f][1,2,4]triazin-7-yl)-2-cyano-2-((((S)-(((S)-1-(cyclohexyloxy)-1-oxopropan-2-yl)amino)(phenoxy)phosphoryl)oxy)methyl) tetrahydrofuran-3,4-diyl dipropionate]	3980 nM	201 nM	786 nM		813 nM	359 nM	
CCOC(=O)[C@H](C)N[P@](=O)(OC[C@@]1(C#N)O[C@@H](c2ccc3c(N)ncnn23)[C@H](OC(=O)C(C)C)[C@@H]1OC(=O)C(C)C)Oc1ccccc1 (single isomer, unassigned) [Example 144]	1180 nM	93 nM	31 nM		1270 nM	442 nM	EC50 [1, 9]: 1280 nM; EC50 (HRV16; [12]): 92 nM
CC(C)C(=O)O[C@H]1[C@H](c2ccc3c(N)ncnn23)O[C@](C#N)(COP(=O)(N[C@@H](C)C(=O)OCC2COC2)Oc2ccccc2)[C@H]1OC(=O)C(C)C (single isomer, unassigned) [Example 201]				177 nM			EC50 [1, 5]: 317 nM; EC50 [2]: 57 nM
CC(C)C(=O)O[C@H]1[C@H](c2ccc3c(N)ncnn23)O[C@](C#N)(CO[P@@](=O)(N[C@@H](C)C(=O)OC2CCCCC2)Oc2ccccc2)[C@H]1OC(=O)C(C)C [Example 77, (2R,3S,4S,5S)-5-(4-aminopyrrolo[2,1-f][1,2,4]triazin-7-yl)-2-cyano-2-((((S)-(((S)-1-(cyclohexyloxy)-1-oxopropan-2-yl)amino)(phenoxy)phosphoryl)oxy)methyl) tetrahydrofuran-3,4-diyl bis(2-methylpropanoate)]	1490 nM	152 nM	185 nM		936 nM	608 nM	
COC(=O)[C@H](C)N[P@](=O)(OC[C@@]1(C#N)O[C@@H](c2ccc3c(=N)n(COP(=O)(O)O)cnn23)[C@H](OC(=O)C(C)C)[C@@H]1OC(=O)C(C)C)Oc1ccccc1 [Example 259, (2R,3S,4S,5S)-2-cyano-5-(4-imino-3-((phosphonooxy)methyl)-3,4-dihydropyrrolo[2,1-f][1,2,4]triazin-7-yl)-2-((((S)-(((S)-1-methoxy-1-oxopropan-2-yl)amino)(phenoxy)phosphoryl)oxy)methyl)tetrahydrofuran-3,4-diyl bis(2-methylpropanoate)]	1860 nM				2080 nM	1120 nM	
CCC(=O)O[C@H]1[C@H](c2ccc3c(N)ncnn23)O[C@](C#N)(CO[P@@](=O)(N[C@@H](C)C(=O)OC(C)C)Oc2ccccc2)[C@H]1OC(=O)CC [Example 90, (2R,3S,4S,5S)-5-(4-Aminopyrrolo[2,1-f][1,2,4]triazin-7-yl)-2-cyano-2-((((S)-(((S)-1-isopropoxy-1-oxopropan-2-yl)amino)(phenoxy)phosphoryl)oxy)methyl) tetrahydrofuran-3,4-diyl dipropionate]	2160 nM	259 nM	677 nM		1140 nM	579 nM	
